For 1 molecule, IC50 results are on record in BindingDB's records for doi:10.1016/s0960-894x(00)00348-6 (Smithkline Beecham Pharmaceuticals, 2000).

For the assay, the target named is Tyrosyl-tRNA synthetase (Staphylococcus aureus). Put plainly: Inhibitory activity of compound against tyrosyl tRNA synthetase from Staphylococcus aureus was determined.

Turning to `N[C@@H](Cc1ccc(O)cc1)C(=O)N[C@@H](C(=O)O)[C@H]1[C@H](O)[C@@H](O)[C@@H](O)CN1O` [(R)-[(S)-2-Amino-3-(4-hydroxy-phenyl)-propionylamino]-((2S,3S,4S,5S)-1,3,4,5-tetrahydroxy-piperidin-2-yl)-acetic acid], the concentration for half-maximal inhibition (IC50) (commonly the concentration that inhibits the measured activity by half) amounted to 21 nM.
